The target of one assay is human orexin receptor 2 (Homo sapiens (Human), UniProt O43614). Nature of the assay: Orexin antagonist activity, intracellular calcium FLIPR assay, RBL-2H3 cells expressing human orexin receptor 2. Format: cell-based. The conditions noted are these: RBL-2H3 cells stably expressing human orexin receptor 2; orexin-A at approx. 80% maximal response; compound added 15 minutes before; read-out: Human Orexin2R IC50. (In general: A change in cytosolic calcium serves as a functional read-out for many receptors and channels.)
Chain of human orexin receptor 2 (O43614 whole entry): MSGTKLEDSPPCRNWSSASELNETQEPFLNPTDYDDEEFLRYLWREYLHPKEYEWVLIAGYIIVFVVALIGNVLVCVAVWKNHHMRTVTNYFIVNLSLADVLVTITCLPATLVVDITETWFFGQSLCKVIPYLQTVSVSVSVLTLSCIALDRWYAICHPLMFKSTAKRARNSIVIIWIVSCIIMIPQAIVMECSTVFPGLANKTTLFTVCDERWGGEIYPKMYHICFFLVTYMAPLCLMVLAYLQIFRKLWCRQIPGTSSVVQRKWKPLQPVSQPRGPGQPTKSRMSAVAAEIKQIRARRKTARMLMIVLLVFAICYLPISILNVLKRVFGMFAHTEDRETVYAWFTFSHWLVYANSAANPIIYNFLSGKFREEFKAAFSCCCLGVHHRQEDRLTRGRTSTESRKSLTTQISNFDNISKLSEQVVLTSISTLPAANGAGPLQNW

The target of another assay is human orexin receptor 1 (Homo sapiens (Human), UniProt O43613). Nature of the assay: Orexin antagonist activity, intracellular calcium FLIPR assay, RBL-2H3 cells expressing human orexin receptor 1. Format: cell-based. The conditions noted are these: RBL-2H3 cells stably expressing human orexin receptor 1; orexin-A at approx. 80% maximal response; compound added 15 minutes before; read-out: Human Orexin1R IC50.
Chain of human orexin receptor 1 (O43613 whole entry): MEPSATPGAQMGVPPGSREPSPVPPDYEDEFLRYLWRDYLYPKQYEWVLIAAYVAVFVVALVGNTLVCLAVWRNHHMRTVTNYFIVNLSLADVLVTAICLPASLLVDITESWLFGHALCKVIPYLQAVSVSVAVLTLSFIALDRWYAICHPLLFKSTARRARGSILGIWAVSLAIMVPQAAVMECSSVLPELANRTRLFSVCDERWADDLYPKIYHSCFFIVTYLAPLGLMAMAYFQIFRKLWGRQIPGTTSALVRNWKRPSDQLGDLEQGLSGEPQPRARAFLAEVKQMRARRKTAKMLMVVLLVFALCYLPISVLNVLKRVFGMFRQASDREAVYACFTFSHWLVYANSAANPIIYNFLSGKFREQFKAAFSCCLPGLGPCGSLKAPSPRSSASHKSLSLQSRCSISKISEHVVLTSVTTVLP

`Cc1nnc(-c2ccccc2C(=O)N[C@H]2CCC[C@]2(C)Nc2cnc(C(F)(F)F)cn2)o1` [Example 160, 2-(5-Methyl-1,3,4-oxadiazol-2-yl)-N-[(1S,2S)-2-methyl-2-{[5-(trifluoromethyl)pyrazin-2-yl]amino}cyclopentyl]benzamide]: the values for the IC50 on human orexin receptor 2 and at human orexin receptor 1 were more than 10000 nM and 29 nM, respectively.

In the case of `O=C(N[C@H]1CCC[C@@H]1Nc1cnc(C(F)(F)F)cn1)c1cc(Cl)ccc1-n1ccnn1` [Example 55, 5-Chloro-2-(1H-1,2,3-triazol-1-yl)-N-[(1S,2S)-2-{[5-(trifluoromethyl)pyrazin-2-yl]amino}cyclopentyl]benzamide], the IC50 – broadly, the point on the concentration scale where inhibition reaches its midpoint – at human orexin receptor 2 was more than 10000 nM; at human orexin receptor 1, 761 nM.

In the case of `Cc1nnc(-c2ccccc2C(=O)N[C@H]2CCC[C@@H]2Nc2cnc(C(F)(F)F)cn2)o1` [Example 44, 2-(5-Methyl-1,3,4-oxadiazol-2-yl)-N-[(1S,2S)-2-{[5-(trifluoromethyl)pyrazin-2-yl]amino}cyclopentyl]benzamide], the IC50 at human orexin receptor 2 was more than 10000 nM; at human orexin receptor 1, 199 nM.

Consider `O=C(N[C@H]1CCC[C@@H]1Nc1cnc(C(F)(F)F)cn1)c1cc(C2CC2)ccc1-n1nccn1` [Example 57, 5-Cyclopropyl-2-(2H-1,2,3-triazol-2-yl)-N-[(1S,2S)-2-{[5-(trifluoromethyl)pyrazin-2-yl]amino}cyclopentyl]benzamide], for which the IC50 on human orexin receptor 2 is more than 10000 nM; at human orexin receptor 1, 38 nM.

For `O=C(N[C@H]1CCC[C@@H]1Nc1ccc(C(F)(F)F)cn1)c1ccccc1-n1nccn1` [Example 12, 2-(2H-1,2,3-Triazol-2-yl)-N-[(1S,2S)-2-{[5-(trifluoromethyl)pyridin-2-yl]amino}cyclopentyl]benzamide], the IC50 at human orexin receptor 2 is more than 10000 nM; on human orexin receptor 1, 65 nM.

As for `O=C(NC1CCCC1Cc1cc(C(F)(F)F)ccn1)c1ccccc1-n1nccn1` (single isomer, unassigned) [Example 23, 2-(2H-1,2,3-Triazol-2-yl)-N-(2-{[4-(trifluoromethyl)pyridin-2-yl]methyl}cyclopentyl)benzamide], the IC50 was determined as 3800 nM at human orexin receptor 2 and 792 nM on human orexin receptor 1.

On to `O=C(N[C@H]1CCC[C@@H]1Nc1cnc(C(F)(F)F)cn1)c1ncccc1-n1cccn1` [Example 43, 3-(1H-Pyrazol-1-yl)-N-[(1S,2S)-2-{[5-(trifluoromethyl)pyrazin-2-yl]amino}cyclopentyl]pyridine-2-carboxamide], for which the values for the IC50 at human orexin receptor 2 and at human orexin receptor 1 were more than 10000 nM and 289 nM, respectively.

For `Cc1nc(C(F)(F)F)cnc1N[C@H]1CCC[C@@H]1NC(=O)c1ncccc1-n1nccn1` [Example 76, N-[(1S,2S)-2-{[3-Methyl-5-(trifluoromethyl)pyrazin-2-yl]amino}cyclopentyl]-3-(2H-1,2,3-triazol-2-yl)pyridine-2-carboxamide], the IC50 on human orexin receptor 2 was more than 10000 nM; on human orexin receptor 1, 33 nM.

For `COc1cccc(-n2cccn2)c1C(=O)N[C@H]1CCC[C@@H]1Nc1cnc(C(F)(F)F)cn1` [Example 50, 2-Methoxy-6-(1H-pyrazol-1-yl)-N-[(1S,2S)-2-{[5-(trifluoromethyl)pyrazin-2-yl]amino}cyclopentyl]benzamide], the values for the IC50 on human orexin receptor 2 and at human orexin receptor 1 were more than 10000 nM and 80 nM, respectively.

In the case of `O=C(N[C@H]1CCC[C@@H]1Nc1cnc(C(F)(F)F)cn1)c1c(F)ccc(F)c1-n1nccn1` [Example 64, 3,6-Difluoro-2-(2H-1,2,3-triazol-2-yl)-N-[(1S,2S)-2-{[5-(trifluoromethyl)pyrazin-2-yl]amino}cyclopentyl]benzamide], the IC50 at human orexin receptor 2 was more than 10000 nM; on human orexin receptor 1 it was 57 nM.

With `O=C(NC1CCCC1Cc1ccc(C(F)(F)F)cn1)c1ccccc1-n1nccn1` (stereo not shown) [Example 24, 2-(2H-1,2,3-Triazol-2-yl)-N-(2-{[5-(trifluoromethyl)pyridin-2-yl]methyl}cyclopentyl)benzamide], the IC50 at human orexin receptor 2 is more than 10000 nM; on human orexin receptor 1 it was 766 nM.

Source of the values: patent US9156829B2, “Cycloalkyl and heterocycloalkyl compounds as orexin receptor antagonists” (Takeda Pharmaceutical Company Limited, priority 2014, dated 2015).
